Test results as given in patent US8735584B2 (Merck Patent GmbH, priority 2008, dated 2014).

Target: T1, GST-Aurora A (Homo sapiens, UniProt O14965)
T1 construct: N-terminal GST fusion with full length Aurora A (1-403 amino acids); purchased Carna Biosciences 05-101
T1 sequence (O14965 1-403): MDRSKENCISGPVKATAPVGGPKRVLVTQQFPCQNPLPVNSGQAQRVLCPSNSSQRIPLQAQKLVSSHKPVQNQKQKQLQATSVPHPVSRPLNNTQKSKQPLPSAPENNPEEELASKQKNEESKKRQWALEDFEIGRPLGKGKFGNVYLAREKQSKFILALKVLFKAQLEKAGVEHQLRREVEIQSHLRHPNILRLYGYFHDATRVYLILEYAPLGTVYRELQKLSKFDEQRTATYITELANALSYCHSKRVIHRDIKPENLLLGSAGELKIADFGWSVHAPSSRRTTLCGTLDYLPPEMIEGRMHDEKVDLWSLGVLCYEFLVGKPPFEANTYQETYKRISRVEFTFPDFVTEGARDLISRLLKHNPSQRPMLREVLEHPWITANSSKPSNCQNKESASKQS
Experiment: Aurora A IC50, Caliper LC3000 mobility shift assay
Assay type: biochemical
Details: LC3000 method; 15 uM ATP (the KM value); read-out: Aurora Kinase A Activity (IC50)
Description: The Aurora assays described here are performed on two Caliper Life Sciences systems: the LC3000 and the Desktop Profiler. These provide data on enzyme activity via measurement of the relative amounts of phosphorylated or unphosphorylated fluorescently labelled substrate peptide at the end of an enzymatic reaction. These different states of peptide are resolved by applying a potential difference across the sample. The presence of the charged phosphate group on the product (as opposed to the substrate) causes a different peptide mobility between the two peptides. This is visualized by excitation of the fluorescent label on the substrate and product peptides and represented as peaks within the analysis software.
In order to measure inhibitor activity of Aurora A inhibitors in the Caliper Life Sciences LC3000, a TTP Mosquito liquid handling instrument is used to place 0.25 ul of the appropriate concentration of inhibitor in 100% DMSO (for a dose response curve calculation) into each well of a 384-well plate. To this reaction components are added to a final volume of 25 ul: • 0.067 ng/ul GST-Aurora A (Carna Biosciences 05-101. N-terminal GST fusion with full length Aurora A (1-403 amino acids), accession number NP 940835.1). • 15 uM ATP (Fluke, 02055) • 1 mM DTT (Sigma, D0632) • 1 mM MgCl2 (Sigma, M1028) • 1 uM substrate peptide (sequence FITC-LRRASLG-(CONH2), synthesized by Tufts Peptide Synthesis service. • 100 mM HEPES pH 7.5 (Calbiochem, 391338) • 0.015% Brij-35 (Sigma, B4184)
The reaction is incubated for 90 min at 25 C, and then stopped by the addition of 70 ul of Stop buffer (100 mM HEPES pH 7.5, 0.015% Brij-35, 10 mM EDTA (Sigma, E7889)).
The plate is read on a Caliper LC3000 in an Off-Chip mobility shift assay format, using the following parameters for a 12-sipper chip: screening pressure—1.8 psi, upstream voltage—2700, downstream voltage—1000. These conditions cause unphosphorylated substrate and phosphorylated product peptide to resolve as separate peaks allowing direct measurement of percentage of conversion of substrate to product. The percent conversion can be plotted against concentration of inhibitor to produce a sigmoidal dose response curve, from which an 1050 can be calculated using XLFit for Microsoft Excel.
In the desired wells of a 384-well plate, Aurora A (0.067 ng/ul) was incubated with 15 uM ATP (the KM value), 1 mM DTT, 1 mM MgCl2, and 1 uM peptide substrate (sequence FITC-LRRASLG-(CONH2), FITC=fluorescein isothiocyanate) in 100 mM HEPES pH 7.5 and 0.015% Brij-35 buffer. The reaction was incubated for 90 min at 25 C, and then stopped by the addition of 45 ul of Stop buffer (100 mM HEPES ph 7.5, 0.015% Brij-35, 10 mM EDTA).
The plate was read in a Caliper LC 3000 in an Off-Chip mobility shift assay format, using the following parameters: screening pressure—1.8 psi, upstream voltage—2700, downstream voltage—1000. These conditions cause unphosphorylated substrate peptide to resolve as a peak before that of the phosphorylated peptide product.
In the following table “+” means >100 nM, “++” means 11-100 nM, and “+++” means <11 nM.

Row | IC50 | Structure (SMILES)
1 | > 100 nM | CC(=O)Nc1ccc(C#Cc2ccnc3[nH]c(=O)c4ccccc4c23)cc1 [Compound 265]
2 | < 11 nM | COC(=O)c1ccc2c(c1)c(=O)[nH]c1nccc(Nc3ccc(NC(=O)c4ccccc4)cc3)c12 [Compound 267, Methyl 1-(4-benzamidophenylamino)-6-oxo-5,6-dihydrobenzo[c][1,8]naphthyridine-8-carboxylate]
3 | < 11 nM | O=C(O)c1ccc2c(c1)c(=O)[nH]c1nccc(Nc3ccc(NC(=O)c4ccccc4)cc3)c12 [Compound 268, 1-(4-Benzamidophenylamino)-6-oxo-5,6-dihydrobenzo[c][1,8]naphthyridine-8-carboxylic acid]
4 | 11 to 100 nM | CN1CCN(C(=O)c2ccc3c(c2)c(=O)[nH]c2nccc(Nc4ccc(NC(=O)c5ccccc5)cc4)c23)CC1 [Compound 269, N-(4-(8-(4-Methylpiperazine-1-carbonyl)-6-oxo-5,6-dihydrobenzo[c][1,8]naphthyridin-1-ylamino)phenyl)benzamide]
5 | 11 to 100 nM | CN(C)CCNC(=O)c1ccc2c(c1)c(=O)[nH]c1nccc(Nc3ccc(NC(=O)c4ccccc4)cc3)c12 [Compound 270, 1-(4-Benzamidophenylamino)-N-(2-(dimethylamino)ethyl)-6-oxo-5,6-dihydrobenzo[c][1,8]naphthyridine-8-carboxamide]
6 | 11 to 100 nM | CN1CCN(CCNC(=O)c2ccc3c(c2)c(=O)[nH]c2nccc(Nc4ccc(NC(=O)c5ccccc5)cc4)c23)CC1 [Compound 271, 1-(4-Benzamidophenylamino)-N-(2-(4-methylpiperazin-1-yl)ethyl)-6-oxo-5,6-dihydrobenzo[c][1,8]naphthyridine-8-carboxamide]
7 | < 11 nM | O=C(NCC(O)CO)c1ccc2c(c1)c(=O)[nH]c1nccc(Nc3ccc(NC(=O)c4ccccc4)cc3)c12 (stereo not shown) [Compound 272, 1-(4-Benzamidophenylamino)-N-(2,3-dihydroxypropyl)-6-oxo-5,6-dihydrobenzo[c][1,8]naphthyridine-8-carboxamide]
8 | 11 to 100 nM | CCN(CCO)Cc1ccc2c(c1)c(=O)[nH]c1nccc(Nc3ccc(NC(=O)c4ccccc4)cc3)c12 [Compound 274, N-(4-(8-((Ethyl(2-hydroxyethyl)amino)methyl)-6-oxo-5,6-dihydrobenzo[c][1,8]naphthyridin-1-ylamino)phenyl)benzamide]
9 | 11 to 100 nM | O=C(Nc1ccc(Nc2ccnc3[nH]c(=O)c4cc(Cl)ccc4c23)cc1)c1ccccc1 [Compound 275, N-(4-(8-Chloro-6-oxo-5,6-dihydrobenzo[c][1,8]naphthyridin-1-ylamino)phenyl)benzamide]
10 | 11 to 100 nM | CN1CCN(c2ccc3c(c2)c(=O)[nH]c2nccc(Nc4ccc(NC(=O)c5ccccc5)cc4)c23)CC1 [Compound 276, N-(4-(8-(4-Methylpiperazin-1-yl)-6-oxo-5,6-dihydrobenzo[c][1,8]naphthyridin-1-ylamino)phenyl)benzamide]
11 | < 11 nM | O=C(Nc1ccc(Nc2ccnc3[nH]c(=O)c4ccc(CO)cc4c23)cc1)c1ccccc1 [Compound 279, N-(4-(9-(Hydroxymethyl)-6-oxo-5,6-dihydrobenzo[c][1,8]naphthyridin-1-ylamino)phenyl)benzamide]
12 | < 11 nM | NCc1ccc2c(=O)[nH]c3nccc(Nc4ccc(NC(=O)c5ccccc5)cc4)c3c2c1 [Compound 280, N-(4-(9-(Aminomethyl)-6-oxo-5,6-dihydrobenzo[c][1,8]naphthyridin-1-ylamino)phenyl)benzamide]
13 | < 11 nM | O=C(O)c1ccc2c(=O)[nH]c3nccc(Nc4ccc(NC(=O)c5ccccc5)cc4)c3c2c1 [Compound 281, 1-(4-Benzamidophenylamino)-6-oxo-5,6-dihydrobenzo[c][1,8]naphthyridine-9-carboxylic acid]
14 | < 11 nM | NC(=O)c1ccc2c(=O)[nH]c3nccc(Nc4ccc(NC(=O)c5ccccc5)cc4)c3c2c1 [Compound 282, 1-(4-benzamidophenylamino)-6-oxo-5,6-dihydrobenzo[c][1,8]naphthyridine-9-carboxamide]
15 | 11 to 100 nM | CN(C)C(=O)c1ccc2c(=O)[nH]c3nccc(Nc4ccc(NC(=O)c5ccccc5)cc4)c3c2c1 [Compound 283, 1-(4-Benzamidophenylamino)-N,N-dimethyl-6-oxo-5,6-dihydrobenzo[c][1,8]naphthyridine-9-carboxamide]
16 | < 11 nM | NCCNC(=O)c1ccc2c(=O)[nH]c3nccc(Nc4ccc(NC(=O)c5ccccc5)cc4)c3c2c1 [Compound 284, N-(2-Aminoethyl)-1-(4-benzamidophenylamino)-6-oxo-5,6-dihydrobenzo[c][1,8]naphthyridine-9-carboxamide]
17 | < 11 nM | CN(C)CCNC(=O)c1ccc2c(=O)[nH]c3nccc(Nc4ccc(NC(=O)c5ccccc5)cc4)c3c2c1 [Compound 285, 1-(4-benzamidophenylamino)-N-(2-(dimethylamino)ethyl)-6-oxo-5,6-dihydrobenzo[c][1,8]naphthyridine-9-carboxamide]
18 | 11 to 100 nM | CN1CCN(CCNC(=O)c2ccc3c(=O)[nH]c4nccc(Nc5ccc(NC(=O)c6ccccc6)cc5)c4c3c2)CC1 [Compound 286, 1-(4-benzamidophenylamino)-N-(2-(4-methylpiperazin-1-yl)ethyl)-6-oxo-5,6-dihydrobenzo[c][1,8]naphthyridine-9-carboxamide]
19 | > 100 nM | CC(C(=O)Nc1ccccc1)N1CCC(Nc2ccnc3[nH]c(=O)c4ccccc4c23)CC1 (stereo not shown) [Compound 287, 2-(4-(6-oxo-5,6-dihydrobenzo[c][1,8]naphthyridin-1-ylamino)piperidin-1-yl)-N-phenylpropanamide]
20 | > 100 nM | CC(NC(=O)CN1CCC(Nc2ccnc3[nH]c(=O)c4ccccc4c23)CC1)c1ccccc1 (stereo not shown) [Compound 288, 2-(4-(6-Oxo-5,6-dihydrobenzo[c][1,8]naphthyridin-1-ylamino)piperidin-1-yl)-N-(1-phenylethyl)acetamide]
21 | 11 to 100 nM | O=C(NCCO)c1ccc2c(=O)[nH]c3nccc(Nc4ccc(NC(=O)c5ccccc5)cc4)c3c2c1 [Compound 289, 1-(4-Benzamidophenylamino)-N-(2-hydroxyethyl)-6-oxo-5,6-dihydrobenzo[c][1,8]naphthyridine-9-carboxamide]
22 | 11 to 100 nM | CN1CCN(C(=O)c2ccc3c(=O)[nH]c4nccc(Nc5ccc(NC(=O)c6ccccc6)cc5)c4c3c2)CC1 [Compound 290, N-(4-(9-(4-Methylpiperazine-1-carbonyl)-6-oxo-5,6-dihydrobenzo[c][1,8]naphthyridin-1-ylamino)phenyl)benzamide]
23 | < 11 nM | CN1CCN(Cc2ccc3c(=O)[nH]c4nccc(Nc5ccc(NC(=O)c6ccccc6)cc5)c4c3c2)CC1 [Compound 291, N-(4-(9-((4-methylpiperazin-1-yl)methyl)-6-oxo-5,6-dihydrobenzo[c][1,8]naphthyridin-1-ylamino)phenyl)benzamide]
24 | 11 to 100 nM | CN(C)CCN(C)Cc1ccc2c(=O)[nH]c3nccc(Nc4ccc(NC(=O)c5ccccc5)cc4)c3c2c1 [Compound 292, N-(4-(9-(((2-(Dimethylamino)ethyl)(methyl)amino)methyl)-6-oxo-5,6-dihydrobenzo[c][1,8]naphthyridin-1-ylamino)phenyl)benzamide]
25 | < 11 nM | O=C(Nc1ccc(Nc2ccnc3[nH]c(=O)c4ccc(Cl)cc4c23)cc1)c1ccccc1 [Compound 293, N-(4-(9-Chloro-6-oxo-5,6-dihydrobenzo[c][1,8]naphthyridin-1-ylamino)phenyl)benzamide]
